Test results published in BindingDB's records for doi:10.1073/pnas.0509591102 (Mcgill University, 2005).

Assays:
[1] = biological target: 5-hydroxytryptamine receptor 1A (Homo sapiens, UniProt P08908)
[2] = biological target: 5-hydroxytryptamine receptor 2A (Homo sapiens, UniProt P28223)
[3] = biological target: Potassium voltage-gated channel subfamily H member 2 (Homo sapiens, UniProt Q12809)
Cannabinoid receptor 2 = Cannabinoid receptor 2 (Homo sapiens, UniProt P34972)
[4] = biological target: 5-hydroxytryptamine receptor 6 (Homo sapiens, UniProt P50406)
[5] = biological target: Kappa-type opioid receptor (Homo sapiens, UniProt P41145)
Mu-type opioid receptor = Mu-type opioid receptor (Homo sapiens, UniProt P35372)
[6] = biological target: Sodium-dependent noradrenaline transporter (Homo sapiens, UniProt P23975)
Histamine H1 receptor = Histamine H1 receptor (Homo sapiens, UniProt P35367)
Histamine H2 receptor = Histamine H2 receptor (Homo sapiens, UniProt P25021)
Cannabinoid receptor 1 = Cannabinoid receptor 1 (Rattus norvegicus, UniProt P20272)
[7] = biological target: 5-hydroxytryptamine receptor 1B (Homo sapiens, UniProt P28222)
[8] = biological target: 5-hydroxytryptamine receptor 1D (Homo sapiens, UniProt P28221)
[9] = biological target: 5-hydroxytryptamine receptor 7 (Homo sapiens, UniProt P34969)
[10] = biological target: 5-hydroxytryptamine receptor 1E (Homo sapiens, UniProt P28566)
D(4) dopamine receptor = D(4) dopamine receptor (Homo sapiens, UniProt P21917)
[11] = biological target: Neuronal acetylcholine receptor subunit alpha-4 (Homo sapiens, UniProt P43681)
[12] = biological target: 5-hydroxytryptamine receptor 3A (Homo sapiens, UniProt P46098)
[13] = biological target: Beta-1 adrenergic receptor (Rattus norvegicus, UniProt P18090)
[14] = biological target: Muscarinic acetylcholine receptor M3 (Homo sapiens, UniProt P20309)
D(2) dopamine receptor = D(2) dopamine receptor (Homo sapiens, UniProt P14416)
[15] = biological target: Alpha-1A adrenergic receptor (Homo sapiens, UniProt P35348)
D(3) dopamine receptor = D(3) dopamine receptor (Rattus norvegicus, UniProt P19020)
D(1A) dopamine receptor = D(1A) dopamine receptor (Homo sapiens, UniProt P21728)
[16] = biological target: 5-hydroxytryptamine receptor 2C (Rattus norvegicus, UniProt P08909)
[17] = biological target: ATP-dependent translocase ABCB1 (Homo sapiens, UniProt P08183)
D(1B) dopamine receptor = D(1B) dopamine receptor (Homo sapiens, UniProt P21918)
[18] = biological target: Alpha-2B adrenergic receptor (Homo sapiens, UniProt P18089)
[19] = biological target: Alpha-2C adrenergic receptor (Homo sapiens, UniProt P18825)
[20] = biological target: Muscarinic acetylcholine receptor M2 (Homo sapiens, UniProt P08172)
[21] = biological target: Muscarinic acetylcholine receptor M1 (Homo sapiens, UniProt P11229)
[22] = biological target: Alpha-1B adrenergic receptor (Homo sapiens, UniProt P35368)
[23] = biological target: Muscarinic acetylcholine receptor M4 (Homo sapiens, UniProt P08173)
[24] = biological target: Neuronal acetylcholine receptor subunit alpha-2 (Homo sapiens, UniProt Q15822)
[25] = biological target: Neuronal acetylcholine receptor subunit alpha-3 (Homo sapiens, UniProt P32297)
[26] = biological target: Sigma non-opioid intracellular receptor 1 (Rattus norvegicus, UniProt Q9R0C9)
[27] = biological target: AP-2 complex subunit sigma (Rattus norvegicus, UniProt P62744)
[28] = biological target: Muscarinic acetylcholine receptor M5 (Homo sapiens, UniProt P08912)
[29] = biological target: Beta-2 adrenergic receptor (Rattus norvegicus, UniProt P10608)
[30] = biological target: Alpha-2A adrenergic receptor (Homo sapiens, UniProt P08913)

Measured: Ki

Alpha-2C adrenergic receptor, sequence (P18825 whole entry): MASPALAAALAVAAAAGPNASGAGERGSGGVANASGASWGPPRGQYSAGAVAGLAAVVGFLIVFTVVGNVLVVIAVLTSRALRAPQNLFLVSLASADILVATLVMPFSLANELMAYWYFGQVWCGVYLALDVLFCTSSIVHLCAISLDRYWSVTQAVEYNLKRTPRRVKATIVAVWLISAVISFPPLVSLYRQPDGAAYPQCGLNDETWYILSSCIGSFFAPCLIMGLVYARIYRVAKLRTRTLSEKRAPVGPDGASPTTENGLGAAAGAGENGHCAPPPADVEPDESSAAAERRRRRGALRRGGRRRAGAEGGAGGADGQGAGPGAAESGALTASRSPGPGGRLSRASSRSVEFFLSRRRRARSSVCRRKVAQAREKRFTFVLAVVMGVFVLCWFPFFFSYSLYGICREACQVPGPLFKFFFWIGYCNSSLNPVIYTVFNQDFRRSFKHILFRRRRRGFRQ
D(3) dopamine receptor, sequence (P19020 whole entry): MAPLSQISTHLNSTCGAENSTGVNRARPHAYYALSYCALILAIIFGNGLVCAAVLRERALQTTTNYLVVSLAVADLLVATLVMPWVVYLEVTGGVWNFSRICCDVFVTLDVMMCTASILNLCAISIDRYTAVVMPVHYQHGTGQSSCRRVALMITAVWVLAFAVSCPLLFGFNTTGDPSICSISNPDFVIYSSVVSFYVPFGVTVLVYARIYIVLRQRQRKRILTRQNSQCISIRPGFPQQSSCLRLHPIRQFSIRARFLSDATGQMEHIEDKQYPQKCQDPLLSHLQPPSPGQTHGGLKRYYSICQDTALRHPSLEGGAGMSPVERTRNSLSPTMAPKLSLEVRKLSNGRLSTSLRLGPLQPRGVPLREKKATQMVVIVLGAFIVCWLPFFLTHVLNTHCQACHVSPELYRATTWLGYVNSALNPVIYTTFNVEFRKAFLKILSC
Muscarinic acetylcholine receptor M5, sequence (P08912 whole entry): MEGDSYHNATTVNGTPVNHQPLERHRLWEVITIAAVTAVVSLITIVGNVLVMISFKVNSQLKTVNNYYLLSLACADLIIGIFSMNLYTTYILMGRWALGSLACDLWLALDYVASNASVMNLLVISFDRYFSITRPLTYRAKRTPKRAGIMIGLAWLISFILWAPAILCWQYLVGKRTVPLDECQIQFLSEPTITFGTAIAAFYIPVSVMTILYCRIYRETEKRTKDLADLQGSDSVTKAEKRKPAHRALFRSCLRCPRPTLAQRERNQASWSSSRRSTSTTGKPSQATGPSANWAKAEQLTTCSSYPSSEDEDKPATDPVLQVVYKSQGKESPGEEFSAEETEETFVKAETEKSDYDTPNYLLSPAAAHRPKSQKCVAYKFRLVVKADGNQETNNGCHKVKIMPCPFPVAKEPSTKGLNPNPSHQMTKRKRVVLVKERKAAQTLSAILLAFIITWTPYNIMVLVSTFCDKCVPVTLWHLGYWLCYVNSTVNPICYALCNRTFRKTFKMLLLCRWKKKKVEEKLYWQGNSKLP
Histamine H2 receptor, sequence (P25021 whole entry): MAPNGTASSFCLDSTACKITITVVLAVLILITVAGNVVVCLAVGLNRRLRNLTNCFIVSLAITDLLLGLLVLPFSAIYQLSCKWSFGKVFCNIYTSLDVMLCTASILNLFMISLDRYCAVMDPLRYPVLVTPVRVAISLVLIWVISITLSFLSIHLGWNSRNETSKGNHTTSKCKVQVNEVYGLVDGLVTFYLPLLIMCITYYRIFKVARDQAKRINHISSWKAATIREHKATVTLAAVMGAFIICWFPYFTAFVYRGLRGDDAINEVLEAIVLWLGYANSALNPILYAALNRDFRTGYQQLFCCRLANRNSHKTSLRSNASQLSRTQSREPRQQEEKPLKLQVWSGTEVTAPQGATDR
Muscarinic acetylcholine receptor M1, sequence (P11229 whole entry): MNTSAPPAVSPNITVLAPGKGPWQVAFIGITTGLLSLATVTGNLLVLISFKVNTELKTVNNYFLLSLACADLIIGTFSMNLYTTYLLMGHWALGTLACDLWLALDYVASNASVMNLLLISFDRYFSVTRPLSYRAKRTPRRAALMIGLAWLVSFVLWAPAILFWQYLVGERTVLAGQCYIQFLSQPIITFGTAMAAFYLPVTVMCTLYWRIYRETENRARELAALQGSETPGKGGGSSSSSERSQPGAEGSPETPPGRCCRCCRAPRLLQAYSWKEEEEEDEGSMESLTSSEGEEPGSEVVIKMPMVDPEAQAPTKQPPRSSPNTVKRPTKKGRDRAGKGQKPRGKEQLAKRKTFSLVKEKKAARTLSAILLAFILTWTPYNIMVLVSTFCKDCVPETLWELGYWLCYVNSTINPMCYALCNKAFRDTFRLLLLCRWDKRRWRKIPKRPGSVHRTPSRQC
Cannabinoid receptor 1, sequence (P20272 whole entry): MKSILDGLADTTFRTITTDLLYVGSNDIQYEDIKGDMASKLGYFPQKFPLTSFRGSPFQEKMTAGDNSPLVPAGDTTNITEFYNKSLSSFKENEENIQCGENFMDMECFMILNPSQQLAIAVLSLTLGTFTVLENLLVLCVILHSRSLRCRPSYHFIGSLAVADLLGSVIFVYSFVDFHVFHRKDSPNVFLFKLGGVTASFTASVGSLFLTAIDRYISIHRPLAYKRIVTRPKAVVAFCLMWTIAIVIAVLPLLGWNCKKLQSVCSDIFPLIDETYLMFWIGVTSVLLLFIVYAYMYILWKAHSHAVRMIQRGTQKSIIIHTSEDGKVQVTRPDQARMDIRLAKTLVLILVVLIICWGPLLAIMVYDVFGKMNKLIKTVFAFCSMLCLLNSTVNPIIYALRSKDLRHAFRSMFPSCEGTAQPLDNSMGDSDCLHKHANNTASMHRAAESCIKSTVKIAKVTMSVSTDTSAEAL
Beta-2 adrenergic receptor, sequence (P10608 whole entry): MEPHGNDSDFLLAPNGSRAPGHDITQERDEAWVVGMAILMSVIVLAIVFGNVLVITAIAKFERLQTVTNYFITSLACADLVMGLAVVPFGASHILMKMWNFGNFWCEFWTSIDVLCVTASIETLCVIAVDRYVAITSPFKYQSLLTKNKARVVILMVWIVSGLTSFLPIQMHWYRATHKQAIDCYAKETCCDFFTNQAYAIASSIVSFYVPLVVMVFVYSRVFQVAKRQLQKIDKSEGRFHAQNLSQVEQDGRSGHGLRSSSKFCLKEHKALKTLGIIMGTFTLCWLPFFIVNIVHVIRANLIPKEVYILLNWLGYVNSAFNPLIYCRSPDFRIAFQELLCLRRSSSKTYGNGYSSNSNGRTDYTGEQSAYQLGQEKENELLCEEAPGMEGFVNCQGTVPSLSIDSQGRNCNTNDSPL
D(2) dopamine receptor, sequence (P14416 whole entry): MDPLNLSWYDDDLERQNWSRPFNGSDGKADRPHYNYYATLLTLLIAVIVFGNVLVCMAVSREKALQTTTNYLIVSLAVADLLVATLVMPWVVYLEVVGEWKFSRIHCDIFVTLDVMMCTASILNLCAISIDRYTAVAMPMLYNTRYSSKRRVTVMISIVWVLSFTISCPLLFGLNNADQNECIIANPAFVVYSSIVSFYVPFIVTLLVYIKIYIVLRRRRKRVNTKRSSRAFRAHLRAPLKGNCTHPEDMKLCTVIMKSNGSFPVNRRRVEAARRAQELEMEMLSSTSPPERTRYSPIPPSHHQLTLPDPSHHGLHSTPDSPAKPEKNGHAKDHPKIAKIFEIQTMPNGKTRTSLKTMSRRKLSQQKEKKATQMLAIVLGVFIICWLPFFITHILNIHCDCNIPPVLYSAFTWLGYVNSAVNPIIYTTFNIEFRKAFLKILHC
AP-2 complex subunit sigma, sequence (P62744 whole entry, looked up, one chain of several): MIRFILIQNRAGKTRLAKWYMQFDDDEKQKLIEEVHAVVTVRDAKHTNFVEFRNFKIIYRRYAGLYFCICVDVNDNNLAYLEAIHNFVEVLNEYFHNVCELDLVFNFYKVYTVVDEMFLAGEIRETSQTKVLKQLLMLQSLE
Cannabinoid receptor 2, sequence (P34972 whole entry): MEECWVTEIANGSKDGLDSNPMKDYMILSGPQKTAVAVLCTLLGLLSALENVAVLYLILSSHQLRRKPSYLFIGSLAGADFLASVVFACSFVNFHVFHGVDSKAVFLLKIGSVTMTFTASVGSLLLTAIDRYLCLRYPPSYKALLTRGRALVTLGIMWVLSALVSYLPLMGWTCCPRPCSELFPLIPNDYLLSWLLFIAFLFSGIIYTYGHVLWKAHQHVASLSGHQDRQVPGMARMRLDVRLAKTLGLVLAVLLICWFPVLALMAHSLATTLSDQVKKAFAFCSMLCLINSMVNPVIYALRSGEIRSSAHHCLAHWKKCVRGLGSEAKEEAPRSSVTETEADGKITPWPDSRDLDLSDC
Sodium-dependent noradrenaline transporter, sequence (P23975 whole entry): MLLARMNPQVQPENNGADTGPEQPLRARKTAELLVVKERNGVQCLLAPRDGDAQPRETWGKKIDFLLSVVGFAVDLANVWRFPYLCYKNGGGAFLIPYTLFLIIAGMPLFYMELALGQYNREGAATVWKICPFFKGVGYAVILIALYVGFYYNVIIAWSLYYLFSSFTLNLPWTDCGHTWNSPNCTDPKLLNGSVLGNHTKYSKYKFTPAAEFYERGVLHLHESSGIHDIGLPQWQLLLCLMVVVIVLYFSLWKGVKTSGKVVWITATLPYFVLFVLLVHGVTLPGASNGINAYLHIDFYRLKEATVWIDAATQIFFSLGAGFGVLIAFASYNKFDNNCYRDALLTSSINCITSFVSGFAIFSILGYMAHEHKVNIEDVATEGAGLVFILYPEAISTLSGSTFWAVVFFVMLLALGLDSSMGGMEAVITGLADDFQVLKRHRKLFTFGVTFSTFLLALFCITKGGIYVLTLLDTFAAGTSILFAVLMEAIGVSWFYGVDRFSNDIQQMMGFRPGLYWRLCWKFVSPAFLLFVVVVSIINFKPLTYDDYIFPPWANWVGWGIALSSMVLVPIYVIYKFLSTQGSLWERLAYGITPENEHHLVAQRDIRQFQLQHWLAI
Sigma non-opioid intracellular receptor 1, sequence (Q9R0C9 whole entry): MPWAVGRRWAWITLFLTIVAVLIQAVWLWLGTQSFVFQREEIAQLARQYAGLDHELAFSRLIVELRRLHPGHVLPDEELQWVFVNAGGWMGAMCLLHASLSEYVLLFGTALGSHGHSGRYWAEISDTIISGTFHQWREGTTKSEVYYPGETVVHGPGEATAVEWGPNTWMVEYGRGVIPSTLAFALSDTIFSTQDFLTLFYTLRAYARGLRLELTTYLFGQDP

NC(=O)c1cccc(-c2cccc(OC(=O)NC3CCCCC3)c2)c1 [URB 597]
> 10 µM: all assays above
